Test results reported in patent US11993640B2, “Treating inflammatory lung disease” (United States Government as represented by the Department …, priority 2019, dated 2024).
Entries after “also recorded” stand apart in the source; their conditions may differ. Non-standard residues stand in square brackets, D forms with d. Residues, ends and D or L forms follow the SMILES beside them. *: point of attachment. Phenylacetyl(2,3,4,5,6-F5) = O=C(Cc1c(F)c(F)c(F)c(F)c1F)*; Phe(F5) = N[C@@H](Cc1c(F)c(F)c(F)c(F)c1F)C(=O)O; Phe(4-Cl) = N[C@@H](Cc1ccc(Cl)cc1)C(=O)O; hArg = N=C(N)NCCCC[C@H](N)C(=O)O; 12Ado = NCCCCCCCCCCCC(=O)O; Nle = CCCC[C@H](N)C(=O)O; Orn = NCCC[C@H](N)C(=O)O; Abu = CC[C@H](N)C(=O)O

Columns and labels:
HCC827 cells = experiment: In vitro cell viability, lung cancer HCC827; assay type: cell-based, human; conditions: 5 μM, 72 h; relative to MIA602 = 1; Table 3A
Description: (§1) The inhibitory effects of the various synthesized GHRH antagonists were tested in cell proliferation assays in various human cancer cell lines including stomach cancer (KATOIII, N87), colon cancer (HT-29), urothelial cancer (J82, RT4), pancreatic cancer (PANC-1, CFPAC-1), prostatic cancer (PC3), breast cancer (MX-1, HCC1806), ovarian cancer (SK-OV-3, OVCAR-3) and lung cancer (HCC827, H460).
(§2) Cell culture. Human cancer cell lines including pancreatic (PANC-1 and CFPAC-1), lung (HCC827 and H460), stomach (NCI-N87 and KATOIII), urothelial (J82, RT4), prostatic (PC3), breast (MX-1 and HCC 1806), colorectal (HT-29), and ovarian (SK-OV-3 and OVCAR-3) were obtained from the American Type Culture Collection (ATCC) and cultured at 37° C. in a humidified 95% air/5% CO2 atmosphere in the medium recommended by ATCC.
(§3) In vitro cell viability. Cell viability was analyzed as follows: cancer cells including pancreatic (PANC-1 and CFPAC-1), lung (HCC827 and H460), stomach (NCI-N87 and KATOIII), urothelial (J82, RT4), prostatic (PC3) and breast (MX-1 and HCC 1806), colorectal (HT-29) and ovarian (SK-OV-3 and OVCAR-3) were grown on 96 well plates to ˜60% confluence, the cells were starved for 24 h in culture medium containing 0.5% FBS. Cells were then treated with GHRH antagonists MIA602 AVR compounds at concentrations of 1, 2.5 or 5 μM, or vehicle (0.1% DMSO) in quintuplicates for 72 hours. The medium was replaced every 48 hours. Cell viability was measured using CellTiter 96 aqueous one solution kit (Promega). Inhibitory effects of tested AVR compounds in comparison to that of MIA602 are presented as inhibitory potency.
(§4) Inhibitory effects of selected AVR compounds in comparison to that of MIA602 are presented as inhibitory potency (e.g., percentage of inhibition). […] The cell lines tested including lung cancer HCC827 (FIG. 2A), pancreatic cancer CFPAC-1 (FIG. 2B), stomach cancer N87 (FIG. 2C), colon cancer HT-29 (FIG. 2D), breast cancers MX-1 and HCC1806 (FIGS. 2E, F). Based on the results of cell proliferation assay after cancer cells were treated with antagonist at concentration of 5 μM for 72H, the relative inhibitory potency of AVR antagonists in comparison to MIA-602 is summarized in Table 3 A and B. Over 60 AVR compounds were tested in 12 cancer cell lines.
(§5) Based on the results of cell proliferation assay after cancer cells were treated with antagonist at concentration of 5 µM for 72H, * at concentration of 2 µM for 72 H.

CFPAC-1 cells = experiment: In vitro cell viability, pancreatic cancer CFPAC-1; assay type: cell-based, human; conditions: 5 μM, 72 h; relative to MIA602 = 1; Table 3A
Description: as §1, §2, §3, §4, §5

[1] = target: T1, membrane GHRH-receptors on human anterior pituitary cells (Homo sapiens, UniProt Q02643); experiment: Competitive receptor binding, displacement of 125I-[His1,Nle27]-hGH-RH(1-32)NH2 from human pituitary membranes
T1 construct: Human pituitary was purchased from the National Hormone and Peptide Program; tissue National Hormone and Peptide Program; host or cells: human pituitary membrane fractions
T1 sequence (Q02643 23-423): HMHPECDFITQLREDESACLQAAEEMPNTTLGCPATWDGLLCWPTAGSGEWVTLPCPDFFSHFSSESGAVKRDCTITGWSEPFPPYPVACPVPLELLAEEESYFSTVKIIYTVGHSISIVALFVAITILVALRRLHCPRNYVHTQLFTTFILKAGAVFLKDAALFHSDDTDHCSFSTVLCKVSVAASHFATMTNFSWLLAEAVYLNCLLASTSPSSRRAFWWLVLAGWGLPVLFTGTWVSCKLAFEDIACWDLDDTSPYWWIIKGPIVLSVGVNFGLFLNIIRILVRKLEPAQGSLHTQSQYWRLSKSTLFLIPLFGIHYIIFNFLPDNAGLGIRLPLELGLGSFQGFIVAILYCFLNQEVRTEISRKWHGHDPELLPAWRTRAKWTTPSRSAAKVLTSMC
Description: Receptor binding affinities in vitro. Preparation of human pituitary membrane fractions and receptor binding of analogs of GH-RH were performed (Halmos G, Rekasi Z, Szoke B, Schally A V. (1993) Receptor 3:87-97). Human pituitary was purchased from the National Hormone and Peptide Program. […] Relative affinities compared to hGH-RH(1-29)NH2 were calculated as the ratio of IC50 (dose causing 50% inhibition of specific binding to receptors) of the tested peptides to the IC50 of hGH-RH(1-29)NH2. The values were calculated from technical duplicate tubes.
Nineteen new AVR analogs of GHRH were tested in the receptor binding assay. Table 6 presents the IC50 values of GHRH antagonists to membrane GHRH-receptors binding on human anterior pituitary cells.

SMILES: CCCC[C@H](NC(=O)[C@@H](NC(=O)[C@H](CC(=O)O)NC(=O)[C@H](CCC(N)=O)NC(=O)[C@H](CC(C)C)NC(=O)[C@H](CC(C)C)NC(=O)[C@H](CCCN)NC(=O)[C@H](Cc1c[nH]cn1)NC(=O)[C@H](C)NC(=O)[C@H](CO)NC(=O)[C@H](CC(C)C)NC(=O)[C@H](CCC(N)=O)NC(=O)[C@H](CC)NC(=O)[C@H](CC(C)C)NC(=O)[C@@H](NC(=O)[C@H](CCCN)NC(=O)[C@H](Cc1c[nH]cn1)NC(=O)[C@H](Cc1c(F)c(F)c(F)c(F)c1F)NC(=O)[C@H](CCCCNC(=N)N)NC(=O)[C@H](C)NC(=O)[C@@H](NC(=O)[C@H](Cc1ccc(Cl)cc1)NC(=O)[C@@H](NC(=O)[C@H](C)NC(=O)[C@H](CC(=O)O)NC(=O)[C@@H](CCCNC(=N)N)NC(=O)[C@H](Cc1ccc(O)cc1)NC(=O)CCCCCCCCCCCNC(=O)Cc1c(F)c(F)c(F)c(F)c1F)[C@@H](C)CC)[C@@H](C)O)C(C)C)[C@@H](C)CC)C(=O)N[C@H](CCCNC(=N)N)C(=O)N[C@@H](CCCCNC(=N)N)C(=O)NC [AVR-542, 5FPhAC-Ada-Tyr-DArg-Asp-Ala-Ile-Cpa-Thr-Ala-Har-5FPhe-His-Orn-Val-Leu-Abu-Gln-Leu-Ser-Ala-His-Orn-Leu-Leu-Gln-Asp-Ile-Nle-DArg-Har-NHCH3] ({Phenylacetyl(2,3,4,5,6-F5)-12Ado}-Y[dR]DAI[Phe(4-Cl)]TA[hArg][Phe(F5)]H[Orn]VL[Abu]QLSAH[Orn]LLQDI[Nle][dR][hArg]-NHMe)
- Relative inhibitory potency, Lung HCC827 (HCC827 cells): 2.649
- Relative inhibitory potency, Pancreatic CFPAC-1 (CFPAC-1 cells): 1.312
- IC50 ([1]; human anterior pituitary membranes, mean of two to three determinations, read-out: IC50): 0.21 nM

SMILES: CCCC[C@H](NC(=O)[C@@H](NC(=O)[C@H](CC(=O)O)NC(=O)[C@H](CCC(N)=O)NC(=O)[C@H](CC(C)C)NC(=O)[C@H](CC(C)C)NC(=O)[C@H](CCCN)NC(=O)[C@H](Cc1c[nH]cn1)NC(=O)[C@H](C)NC(=O)[C@H](CO)NC(=O)[C@H](CC(C)C)NC(=O)[C@H](CCC(N)=O)NC(=O)[C@H](CC)NC(=O)[C@H](CC(C)C)NC(=O)[C@@H](NC(=O)[C@H](CCCN)NC(=O)[C@H](Cc1c[nH]cn1)NC(=O)[C@H](Cc1c(F)c(F)c(F)c(F)c1F)NC(=O)[C@H](CCCCNC(=N)N)NC(=O)[C@H](C)NC(=O)[C@@H](NC(=O)[C@H](Cc1ccc(Cl)cc1)NC(=O)[C@@H](NC(=O)[C@H](C)NC(=O)[C@H](CC(=O)O)NC(=O)[C@@H](CCCNC(=N)N)NC(=O)[C@H](Cc1ccc(O)cc1)NC(=O)CCCCCCCCCCCNC(=O)Cc1c(F)c(F)c(F)c(F)c1F)[C@@H](C)CC)[C@@H](C)O)C(C)C)[C@@H](C)CC)C(=O)N[C@H](CCCNC(=N)N)C(=O)N[C@@H](CCCCNC(=N)N)C(=O)NCCCCCCCCCCCC(N)=O [AVR-552, 5FPhAC-Ada-Tyr-DArg-Asp-Ala-Ile-Cpa-Thr-Ala-Har-5FPhe-His-Orn-Val-Leu-Abu-Gln-Leu-Ser-Ala-His-Orn-Leu-Leu-Gln-Asp-Ile-Nle-DArg-Har-Ada-NH2] ({Phenylacetyl(2,3,4,5,6-F5)-12Ado}-Y[dR]DAI[Phe(4-Cl)]TA[hArg][Phe(F5)]H[Orn]VL[Abu]QLSAH[Orn]LLQDI[Nle][dR][hArg][12Ado]-NH2)
- Relative inhibitory potency, Lung HCC827 (HCC827 cells): 4.376
- Relative inhibitory potency, Pancreatic CFPAC-1 (CFPAC-1 cells): 1.57
- Binding affinity to membrane receptors of human pituitary cells [1]: higher binding affinity in comparison to MIA-602; also recorded: highest binding affinities

SMILES: CCCC[C@H](NC(=O)[C@@H](NC(=O)[C@H](CC(=O)O)NC(=O)[C@H](CCC(N)=O)NC(=O)[C@H](CC(C)C)NC(=O)[C@H](CC(C)C)NC(=O)[C@H](CCCN)NC(=O)[C@H](Cc1c[nH]cn1)NC(=O)[C@H](C)NC(=O)[C@H](CO)NC(=O)[C@H](CC(C)C)NC(=O)[C@H](CCC(N)=O)NC(=O)[C@H](CC)NC(=O)[C@H](CC(C)C)NC(=O)[C@@H](NC(=O)[C@H](CCCN)NC(=O)[C@H](Cc1c[nH]cn1)NC(=O)[C@H](Cc1ccc(OC)cc1)NC(=O)[C@H](CCCCNC(=N)N)NC(=O)[C@H](C)NC(=O)[C@@H](NC(=O)[C@H](Cc1c(F)c(F)c(F)c(F)c1F)NC(=O)[C@@H](NC(=O)[C@H](C)NC(=O)[C@H](CC(=O)O)NC(=O)[C@@H](CCCNC(=N)N)NC(=O)[C@H](Cc1ccc(O)cc1)NC(=O)CCCCCCCCCCCNC(=O)Cc1c(F)c(F)c(F)c(F)c1F)[C@@H](C)CC)[C@@H](C)O)C(C)C)[C@@H](C)CC)C(=O)N[C@H](CCCNC(=N)N)C(=O)N[C@@H](CCCCNC(=N)N)C(=O)NCCCCCCCCCCCC(N)=O [AVR-553, 5FPhAC-Ada-Tyr-DArg-Asp-Ala-Ile-5FPhe-Thr-Ala-Har-Tyr(Me)-His-Orn-Val-Leu-Abu-Gln-Leu-Ser-Ala-His-Orn-Leu-Leu-Gln-Asp-Ile-Nle-DArg-Har-Ada-NH2] ({Phenylacetyl(2,3,4,5,6-F5)-12Ado}-Y[dR]DAI[Phe(F5)]TA[hArg]Y(Me)H[Orn]VL[Abu]QLSAH[Orn]LLQDI[Nle][dR][hArg][12Ado]-NH2)
- Binding affinity to membrane receptors of human pituitary cells [1]: higher binding affinity in comparison to MIA-602; also recorded: highest binding affinities
